{"source": "patent US8110543B2", "about": "“Anti-invasive and anti-angiogenic compositions” (Angstrom Pharmaceuticals, Inc., priority 1997, dated 2012)", "key": {"Mat B-III tumors": {"test_system": "Mat B-III tumors", "experiment": "Rat syngeneic Mat B-III breast cancer model", "format": "in vivo", "protocol": "The effects of the compounds are tested on tumor progression in a rat syngeneic model of breast cancer (Xing and Rabbani, 1996). Mat BIII rat breast tumor cells (1×10^6 cells in PBS, 0.1 mL per rat) are inoculated into the mammary fat pads of female Fisher rats. The test compound is dissolved in PBS (200 mM stock), sterile filtered and dispensed in vivo at a dose of up to about 100 mg/kg/day) using a 14-day Alza osmotic mini-pump implanted intraperitoneally at the time of inoculation. Control animals receive vehicle (PBS) alone. Animals are euthanized at day 14 and examined for metastasis in the spleen, lungs, liver, kidney and lymph nodes. In addition, the primary tumors are excised, quantitated, and prepared for immunohistochemistry.\nThe rat syngeneic breast cancer system (Xing and Rabbani, 1996) employs Mat BIIIrat breast cancer cells. When Mat B-III cells (1×10^6 cells) are inoculated into the mammary fat pad of female Fisher rats, they form large tumors which metastasize to regional lymph nodes (LNs) and other distal sites within 14-20 days.\nÅ6 was initially delivered prophylactically (infusion starting on the day of tumor inoculation) using an Alzet mini-pump that delivered 75 mg/kg/day. […] Metastasis was quantitated by counting the number of macroscopic foci without regard for their size.\nEstrogen receptor-positive Mat B-III tumors were used to test combination treatment with Å6 (75 mg/kg/day) and TAM (3 mg/kg/day). In contrast to previous studies, the Mat B-III tumors (inoculated in the mammary fat pad) were staged to 40-50 mm^3 prior to the initiation of treatment. Treatment was continued for 8 days during which time primary tumor growth was measured using calipers (FIG. 14)."}, "3LL": {"test_system": "3LL", "experiment": "3LL metastasis model, related peptides", "design": "species or system mice", "conditions": "mouse, in vivo", "source_text": "This model has been utilized by a number of investigators. See, for example, Gorelik, E. et al., J. Nat'l. Canc. Inst. 65:1257-1264 (1980); Gorelik, E. et al., Rec. Results Canc Res. 75:20-28 (1980); Isakov, N. et al., Invasion Metas. 2:12-32 (1982); Talmadge J. E. et al., J. Nat'l. Canc. Inst. 69:975-980 (1982); Hilgard, P. et al, Br. J. Cancer 35:78-86 (1977)). Test mice are male C57BL/6 mice, 2-3 months old. Following sc, im, or intra-footpad implantation, this tumor produces metastases, preferentially in the lungs. With some lines of the tumor, the primary tumor exerts anti-metastatic effects and must first be excised before study of the metastatic phase (see also U.S. Pat. No. 5,639,725).\nSingle-cell suspensions are prepared from solid tumors by treating minced tumor tissue with a solution of 0.3% trypsin. Cells are washed 3 times with PBS (pH 7.4) and suspended in PBS. Viability of the 3LL cells prepared in this way is generally about 95-99% (by trypan blue dye exclusion). Viable tumor cells (3×10^4-5×10^6) suspended in 0.05 ml PBS are injected subcutaneously, either in the dorsal region or into one hind foot pad of C57BL/6 mice. Visible tumors appear after 3-4 days after dorsal sc injection of 10^6 cells. The day of tumor appearance and the diameters of established tumors are measured by caliper every two days.\nThe treatment is given as one or two doses of peptide or derivative, per week. In another embodiment, the peptide is delivered by osmotic minipump.\nLungs are removed and weighed. Lungs are fixed in Bouin's solution and the number of visible metastases is recorded. The diameters of the metastases are also measured using a binocular stereoscope equipped with a micrometer-containing ocular under 8× magnification. On the basis of the recorded diameters, it is possible to calculate the volume of each metastasis. To determine the total volume of metastases per lung, the mean number of visible metastases is multiplied by the mean volume of metastases. To further determine metastatic growth, it is possible to measure incorporation of ^125IdUrd into lung cells (Thakur, M. L. et al., J. Lab. Clin. Med. 89:217-228 (1977). Ten days following tumor amputation, 25 μg of fluorodeoxyuridine is inoculated into the peritoneums of tumor-bearing (and, if used, tumor-resected mice). After 30 min, mice are given 1 μCi of ^125IdUrd (iododeoxyuridine). One day later, lungs and spleens are removed and weighed, and a degree of ^125IdUrd incorporation is measured using a gamma counter.\nIn addition to Å6, other related peptide compounds described above are tested for efficacy in vivo in the 3LL model (as provided above) as well as the PC-3 model. PC-3 cells transfected with the gene encoding the enzyme chloramphenicol acetyl-transferase (CAT) are inoculated into mice i.v. at doses of 1×10^6 cells per mouse. These mice are implanted with a minipump, as above, which dispenses 100 mg/kg/day of the peptide or vehicle over a period of 14 or 21 days. At termination of treatment, the animals are euthanized and the tumor marker probe is assayed in regional lymph nodes, femurs, lungs, and brain."}, "CHO": {"test_system": "CHO", "experiment": "In vitro proliferation, CHO cells", "format": "cell-based", "protocol": "Å6 was also tested for its ability to inhibit the proliferation of cells other than endothelial cells in vitro."}, "[1]": {"conditions": "Alzet mini-pump 75 mg/kg/day from the day of tumor inoculation"}, "[2]": {"conditions": "comparative analysis of related peptides"}}, "data": [{"substance": "Ac-KPSSPPEE-NH2 [Å6, CH3CO-Lys-Pro-Ser-Ser-Pro-Pro-Glu-Glu-NH2]", "values": [{"measurement": "LN metastasis", "setting": "Mat B-III tumors; [1]", "value": "inhibition"}, {"measurement": "tumor growth", "setting": "Mat B-III tumors; [1]", "value": "inhibition"}, {"measurement": "number of metastases in the spleen, lungs, liver, kidney and lymph nodes", "setting": "Mat B-III tumors; [2]", "value": "significant reduction"}, {"measurement": "size of the primary tumor", "setting": "Mat B-III tumors; [2]", "value": "significant reduction"}, {"measurement": "necrosis of the primary tumor periphery", "setting": "Mat B-III tumors; histological analysis, Å6-treated rats", "value": "50-75%"}, {"measurement": "decrease in Factor VIII-positive foci", "setting": "Mat B-III tumors; tumor sections", "value": "40-60%"}, {"measurement": "TUNEL assay for apoptosis of tumor cells", "setting": "Mat B-III tumors; Å6-treated groups", "value": "stained positive"}, {"measurement": "metastasis, 3LL model", "setting": "3LL", "value": "markedly inhibited"}, {"measurement": "anti-proliferative effect, CHO", "setting": "CHO", "value": "No anti-proliferative effects"}]}]}
